Laboratory results published in patent US20090247466A1, “NEUROPROTECTIVE INTEGRIN-BINDING PEPTIDE AND ANGIOPOIETIN-1 TREATMENTS” (University of Louisville Research Foundation, priority 2008, published 2009).
Ends that are not written are not given here.

What was measured:
[1] = biological target: human αvβ3 integrin (human) (UniProt P06756); experiment: cell-based or functional assay
[2] = system: C57BL/6 mice with spinal cord contusion at T9; experiment: White matter sparing at the injury epicenter (eriochrome cyanine myelin staining) after spinal cord contusion; assay type: in vivo
Description: These mice were tested for overground locomotion using the Basso Mouse Scale (BMS) before the contusion and on the day of euthanasia.
To label endothelial cells of perfused blood vessels, 4 of the vehicle and 4 of the C16 mice received an intravenous injection of the lectin LEA 20 minutes before euthanasia.
To determine whether […] C16 would be neuroprotective, vehicle (n=8) or 100 μg/day C16 (n=9) was injected over 7 days. These mice were tested using the BMS before the contusion and on the last day.
To determine whether C16 had lasting neuroprotective effects, mice received daily injections with vehicle (n=8) or 100 μg/day C16 (n=9) for 14 days. […] These mice were evaluated every week by BMS and were euthanized after 6 weeks. […]
To detect myelin in white matter tracts, one of every five of the transverse sections at each rostro-caudal 1 mm level were stained with a modified eriochrome cyanine (EC) staining protocol (Rabchevsky et al., 2001, J Neurotrauma 18:513-522). […] The injury epicenter was determined for each mouse by the rostro-caudal level that contained the least amount of spared myelin per transverse section. […]
Sections were examined using a Leica DMIRE2 brightfield and fluorescence microscope and images digitized with an attached Spot RTKE camera (Diagnostics Inc., Sterling Height, Mich.). […] The area of LEA was determined with Scion Image. […]

[3] = system: C57BL/6 mice with spinal cord contusion at T9; experiment: Overground locomotor function, Basso Mouse Scale (BMS), after spinal cord contusion; assay type: in vivo
Description: To determine whether C16 had lasting neuroprotective effects, mice received daily injections with vehicle (n=8) or 100 μg/day C16 (n=9) for 14 days. The treatment was started 4 hours after the spinal cord injury consistent with the time it takes to diagnose most injured humans in the developed world. These mice were evaluated every week by BMS and were euthanized after 6 weeks.
Functional recovery from the spinal cord contusion was determined weekly by open-field overground locomotor performance using the Basso Mouse Scale (BMS; Basso et al., 2006, J Neurotrauma 23:635-659), with scores ranging from 0 (complete paralysis) to 9 (normal mobility). Left and right sides are scored separately and averaged for each mouse. Weight bearing is seen at a score of 5 but not at 4. Locomotor function was measured by placing the mouse for 4 min in the center of a circular enclosure (90 cm in diameter, 7 cm wall height) made of molded plastic with a smooth, non-slip floor. Before each evaluation, the mice were examined carefully for perineal infections, wounds in the limbs, or tail and foot autophagia, as they could influence stepping. Such mice were excluded from the BMS test. The mice were tested for baseline values before surgery. The mice in the 7-day experiments were tested on the day of euthanasia and the mice in the 6 week chronic group were tested every week starting on day 8 or 9 after the contusion.
Adult C57B1/6 mice received a contusion injury at the thoracic spine level 9. Starting 4 hours after the injury, the mice received daily intravenous injections of control vehicle, Ang-1 or Ang-1 plus C16 (all at 100 μg/day) for 7 days.
Functional recovery after SCI was determined weekly by open-field overground locomotor performance using the BMS (Basso et al., J Neurotrauma, 23(5), 635-659 (2006)). Before each evaluation, the mice were examined carefully for perineal infections, wounds in the limbs, or tail and foot autophagia, as they could influence stepping. Such mice were excluded from the BMS test. The mice were acclimatized to the testing area for at least 25 minutes, including individually handling for at least 5 minutes, for 3 days and then tested for baseline values before surgery. The mice in the 7-day experiments were tested on the day of euthanasia and the mice in the 6 week chronic group were tested every week starting on day 8 or 9 after the contusion.

[4] = system: C57BL/6 mice with spinal cord contusion at T9; experiment: Perfused (LEA lectin-labeled) blood vessels in the injury penumbra after spinal cord contusion; assay type: in vivo; details: single i.v. injection immediately after injury; 24 hours
Description: Normal (n=3) and 7 day sham operated mice (n=5) also received intravenous LEA injections.
To pre-label perfused blood vessels, 100 μg in 100 μl of FITC-conjugated LEA (Lectin from Lycopersicon esculentum; Sigma, St. Louis, Mo.) was injected into the other jugular vein 30 minutes before euthanasia.

[5] = system: C57BL/6 mice with spinal cord contusion at T9; experiment: Inflammation: CD45 and CD68 immunostained area after spinal cord contusion; assay type: in vivo
Description: Adjacent sections at each mm level were processed for double- or triple immunofluorescent staining to detect CD45 (leukocytes), CD68 (activated microglia/macrophages), PECAM1 (endothelial cells), αv, β3 or α5β1 integrin, or in some cases laminin (to define the so-called heterodomain or area of tissue loss). Slides were warmed for 20 minutes on a slide warmer, a ring of wax applied around the sections with a PAP pen (Invitrogen™, Carlsbad, Calif.) and the slides rinsed in 0.1 M Tris-buffered saline (TBS) for 10 min. […] To measure the volume of tissue loss as determined by laminin staining in the horizontal sections, the sections were processed using an ABC-DAB staining protocol.
Sections were examined using a Leica DMIRE2 brightfield and fluorescence microscope and images digitized with an attached Spot RTKE camera (Diagnostics Inc., Sterling Height, Mich.). EC, CD45, CD68 and PECAM staining through the entire plane of the transverse sections was digitized using a 5× objective and the area occupied by the staining calculated for the three sections per rostro-caudal level by using the threshold feature of Scion Image software (Scion Corporation, Frederick, Md.). […] The area of LEA was determined with Scion Image. To provide a measure of the number of blood vessels, the number of LEA-positive vessels intersecting 100 μm spaced horizontal (5) and vertical (6) lines were counted in each image. […] The software calculated the volume based on the section interval and the area per section and this was expressed as a percentage of the total 10 mm segment. […]

[6] = system: C57BL/6 mice with spinal cord contusion at T9; experiment: Blood vessel permeability: luciferase extravasated into the spinal cord at the injury site; assay type: in vivo
Description: Increased permeability contributes to tissue loss following SCI and was measured here by the amount of luciferase that extravasated into the spinal cord at the injury site after i.v. injection 20 minutes before analysis.

[7] = system: monocytic THP-1 cells across human aortic endothelial cells; experiment: Transendothelial migration assay; assay type: cell-based; details: SP3 600 μM; absence or presence of TNFα
Description: Human aortic endothelial cells (Lonza, Wakersville, Md.) were plated on permeable filters in Transwell® culture plates (Costar, Cambridge, Mass.) at 4×10^4 cells per well. They were grown for 72-96 hours to reach confluency at 37° C. in Dulbecco's modified Eagle's medium Ham's F-12 (DMEM F-12; BioWhittaker, Walkersville, Md.) plus EGM-2 growth factor supplements (EGM-2 SingleQuots™ from Lonza Walkersville Inc, containing hydrocortisone, hEGF, FBS, VEGF, hFGF-B, R3-IGF-1, ascorbic acid, heparin and gentamicin/amphotericin-B) and 10-20% fetal calf serum. Afterwards, the inner chamber of the Transwell® system was loaded with 2×10^5 monocytic THP-1 cells (American Type Culture Collection, Manassas, Va.) and preincubated in medium with or without 15 ng/ml of TNF-α (PeproTech, Rocky Hill, N.J.) for 5 hr at 37° C. C16 peptide was added into the medium of the inner chamber at 25, 50, 100, 200, 400, 600 μM, and SP3 was added at 600 μM. […] The monocytic THP-1 cells were allowed to transmigrate for 6 h at 37° C. and the number of THP-1 cells that crossed endothelial cell layer was counted. […]
Human aortic ECs (BioWhittaker, Walkersville, Md.) were plated on permeable filters in Transwell culture plates (Costar, Cambridge, Mass.) at 4×10^4 cells per well. […] THP-1 cells were allowed to transmigrate for 6 h at 37° C. and the number of THP-1 cells that crossed EC layer was counted. […]

[8] = Blood cell counts after 7 days of treatment; assay type: in vivo, mice; design: key to Leukocytes eosinophils / Leukocytes basophils / Erythrocytes / Leukocytes total / Leukocytes neutrophils / Leukocytes lymphocytes / Leukocytes monocytes: N = within the normal range; details: daily C16 for 7 days after T9 contusion; individual mice A, B
Description: (§1) To determine potential effects of C16 on the number of peripheral leukocytes, 1 ml blood was drawn from the heart just before perfusion-fixation in mice that had been treated with vehicle (n=3) or C16 (n=2) for 7 days treated. The blood was collected in EDTA-coated tubes and blood counts were performed by Drew Scientific Inc. (Oxford, Conn.).
as §1, with “vehicle” for “vehicle (n=3)”, “C16” for “C16 (n=2)”, “days.” for “days treated.”

peripheral leukocytes = experiment: Blood cell counts after 7 days of treatment; assay type: in vivo, mice; design: key to Leukocytes eosinophils / Leukocytes basophils / Erythrocytes / Leukocytes total / Leukocytes neutrophils / Leukocytes lymphocytes / Leukocytes monocytes: N = within the normal range
Description: as §1
as §1, with “vehicle” for “vehicle (n=3)”, “C16” for “C16 (n=2)”, “days.” for “days treated.”

[9] = daily C16 for 7 days after T9 contusion, individual mice A, B

Chain of human αvβ3 integrin (human) (P06756 31-1048, chain 1 of 2): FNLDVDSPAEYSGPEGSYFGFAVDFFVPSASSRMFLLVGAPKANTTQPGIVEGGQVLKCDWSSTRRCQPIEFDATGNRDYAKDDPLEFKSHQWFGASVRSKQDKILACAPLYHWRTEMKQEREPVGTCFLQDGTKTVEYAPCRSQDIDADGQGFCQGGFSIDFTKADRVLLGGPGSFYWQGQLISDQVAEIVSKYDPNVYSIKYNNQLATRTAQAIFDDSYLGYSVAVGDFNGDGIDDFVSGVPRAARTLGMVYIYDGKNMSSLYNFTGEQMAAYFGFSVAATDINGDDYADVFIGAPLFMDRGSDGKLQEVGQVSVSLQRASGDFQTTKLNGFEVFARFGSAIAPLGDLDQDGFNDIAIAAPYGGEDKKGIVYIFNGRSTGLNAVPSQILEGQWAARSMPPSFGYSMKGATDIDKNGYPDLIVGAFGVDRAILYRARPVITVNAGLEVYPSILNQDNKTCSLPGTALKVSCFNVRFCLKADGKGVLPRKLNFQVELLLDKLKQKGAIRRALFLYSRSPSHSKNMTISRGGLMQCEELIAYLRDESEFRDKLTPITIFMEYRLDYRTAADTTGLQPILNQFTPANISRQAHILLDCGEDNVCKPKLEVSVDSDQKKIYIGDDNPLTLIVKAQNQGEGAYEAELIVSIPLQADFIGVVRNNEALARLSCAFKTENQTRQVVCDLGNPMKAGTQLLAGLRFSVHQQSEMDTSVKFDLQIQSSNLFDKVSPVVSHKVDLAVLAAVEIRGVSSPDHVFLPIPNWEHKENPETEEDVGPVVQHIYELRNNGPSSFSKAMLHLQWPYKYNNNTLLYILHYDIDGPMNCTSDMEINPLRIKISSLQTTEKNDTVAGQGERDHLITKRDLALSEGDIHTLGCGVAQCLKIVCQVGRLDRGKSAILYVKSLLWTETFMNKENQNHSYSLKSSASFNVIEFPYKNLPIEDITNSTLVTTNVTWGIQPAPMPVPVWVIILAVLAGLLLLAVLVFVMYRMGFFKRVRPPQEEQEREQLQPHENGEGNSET
Chain of human αvβ3 integrin (human) (P05106 27-788, chain 2 of 2, further chain): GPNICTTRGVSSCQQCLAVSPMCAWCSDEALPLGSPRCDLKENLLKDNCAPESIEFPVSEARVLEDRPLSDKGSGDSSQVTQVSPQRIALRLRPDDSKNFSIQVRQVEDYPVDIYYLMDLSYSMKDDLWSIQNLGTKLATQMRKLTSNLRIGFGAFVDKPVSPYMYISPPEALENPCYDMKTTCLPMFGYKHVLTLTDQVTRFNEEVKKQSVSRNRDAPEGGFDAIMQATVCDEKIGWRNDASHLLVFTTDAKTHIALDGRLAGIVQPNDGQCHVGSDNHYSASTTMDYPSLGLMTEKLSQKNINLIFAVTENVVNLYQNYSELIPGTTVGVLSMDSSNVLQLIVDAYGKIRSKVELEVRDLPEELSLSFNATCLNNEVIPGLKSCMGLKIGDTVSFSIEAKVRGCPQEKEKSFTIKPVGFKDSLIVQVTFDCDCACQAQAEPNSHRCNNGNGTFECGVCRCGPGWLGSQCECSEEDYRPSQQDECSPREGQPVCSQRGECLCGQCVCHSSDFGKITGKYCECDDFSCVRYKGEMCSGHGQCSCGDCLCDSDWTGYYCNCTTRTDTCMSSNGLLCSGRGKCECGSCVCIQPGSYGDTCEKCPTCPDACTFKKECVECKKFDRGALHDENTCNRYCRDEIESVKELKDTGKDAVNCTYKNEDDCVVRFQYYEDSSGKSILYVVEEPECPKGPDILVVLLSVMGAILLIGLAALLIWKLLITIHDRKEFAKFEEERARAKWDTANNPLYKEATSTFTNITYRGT

In the case of “azide-free blocking antibody against human αvβ3 (Cat# MAB1976Z, Chemicon; also known as LM609)”, the monocyte (THP-1) transmigration across an endothelial cell layer, blocking antibody, with TNFα, without C16 [1] is reported as 64% and the monocyte transmigration across an EC layer, reduction by blocking antibody [1] is reported as 36%.
With “Angiopoietin-1 tetra-fibrinogen-like domain [Ang-1]” the “cross-sectional area of white matter at the epicenter compared with vehicle” value ([2]; 7 and 42 day post-injury times) was “greater”, the “BMS score (9 point scale)” value ([3]; 100 μg/day i.v. for 7 days starting 4 hours after injury, behavioral analyses over 6 weeks) was 5.5 and the “mice with a BMS score of 7 or above” value ([3]; i.v. for 7 days, at 43 days) was 4/14. The “mice with a BMS score of 7 and above” value ([3]; last two weeks of testing (5 and 6 weeks after injury)) was 28%, the “number of LEA-positive blood vessels in the penumbra, of sham” value [4] was 40% and the “smaller area of CD68 staining than vehicle treated mice” value ([5]; 24 hours, 3 mm rostral to 3 mm caudal from the epicenter) was about 25%. The “inflammation (CD45, CD68 area) compared with vehicle” value ([5]; all post-injury times, 3 mm rostral to 3 mm caudal from the epicenter) was “reduced inflammation”, the “luciferase values versus vehicle” value ([6]; 24 hours following SCI) was “not different” and the “luciferase values, of vehicle” value ([6]; 72 hours following SCI) was 55±13%.
With “RFSVAVSSHYPFWSR (SEQ ID NO:3) [SP3, reference compound]” the “white matter cross-sectional area at the injury epicenter, percent of sham-operated mice” value ([2]; 100 μg/day i.v. daily for 7 days, 7 days after contusion) was 30±5%, the BMS score ([3]; 100 μg/day i.v. daily for 7 days, 7 days following injury) was 0.7±0.3 and the “effect on the inflammatory response” value ([5]; control peptide 100 μg/day, at 7 days) was “no significant effect”. The “effect on monocyte transmigration” value [7] was “no significant effect”.
In the case of “KAFDITYVRLKF [C16, KAFDITYVRLKF (SEQ ID NO:2)]”, the Erythrocytes [8] is reported as “N”, the Leukocytes basophils (peripheral leukocytes; [9]) is reported as “N” and the Leukocytes eosinophils (peripheral leukocytes; [9]) is reported as “N”. For the same substance, the Leukocytes lymphocytes (peripheral leukocytes; [9]) was “N”, the Leukocytes monocytes (peripheral leukocytes; [9]) was “N” and the Leukocytes neutrophils (peripheral leukocytes; [9]) was “N”. For the same substance, the Leukocytes total (peripheral leukocytes; [9]) was “N”, the Thrombocytes (peripheral leukocytes; [9]) was “low” and the white cell counts (peripheral leukocytes; treated for 7 days) was “within normal range”.
